The values that follow come from patent US11000491B2, “Amino-aryl-benzamide compounds and methods of use thereof” (HEPANOVA, INC., priority 2017, dated 2021).

Read-outs that look alike come from different tables or passages of the source.

Common to all, as to assay type: cell-based
One assay relates to SREBP-1. Put plainly: SREBP-1 expression in cultured primary human hepatocytes. The settings on record: procedure of Example 6, read-out: SREBP-1 mRNA inhibition (EC50). The method, boiled down: (§1)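 Primary human hepatocytes in culture exposed to a range of HPN-01 derivative concentrations; SREBP-1 and SREBP-2 mRNA expression then measured to assess inhibition.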
Another assay has as its system SREBP-2. The experiment in a line: SREBP-2 expression in cultured primary human hepatocytes. The settings on record: procedure of Example 6, read-out: SREBP-2 mRNA inhibition (EC50). The method, boiled down: as §1
The next assay has as its system Huh7 cells. Put plainly: LD content in Huh7 cells pre-treated with insulin, Oil-Red-O staining, absorbance OD 540 nm. The settings on record: procedure of Example 3, read-out: LD content inhibition (EC50). The method, boiled down: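 Huh7 cells, mock-treated or pre-treated with 1 mM insulin, were then exposed to compound at the indicated amounts. Lipid droplets stained with Oil Red O and quantified by absorbance at OD 540 nm.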

Where [1] appears, read: Homo sapiens, Huh-7, Huh7 cells.

Take “4-(4′-amino-4-bromo-4″-sulfamoyl-[1,1′:3′,1″-terphenyl]-5′-yl)piperazine-1-carboxamide [HPN-01624]”: the EC50 with SREBP-1 is 7.54 µM; in the assay with SREBP-2, 13.5 µM; in the assay on Huh7 cells (Huh7 cells), 1.3 µM.

As for `NC(=O)c1cc(-c2ccc(Cl)cc2)cc(-c2ccc(NC(=O)CO)cc2)c1N` [HPN-01419, 4′-amino-4-chloro-4″-(2-hydroxyacetamido)-[1,1′:3′,1″-terphenyl]-5′-carboxamide], the EC50 was 1.82 µM with SREBP-1 (Homo sapiens, Hepatocyte); 3.53 µM in the assay on SREBP-2 (Homo sapiens, Hepatocyte); 0.5 µM in the assay on Huh7 cells (setting [1]).

On to `NC(=O)c1cc(-c2ccc(Cl)cc2)cc(OCc2ccc(S(N)(=O)=O)cc2)c1N` [HPN-01424, 4-amino-4′-chloro-5-((4-sulfamoylbenzyl)oxy)-[1,1′-biphenyl]-3-carboxamide], for which the EC50 with SREBP-1 (Homo sapiens, Hepatocyte) was 2.69 µM; with SREBP-2 (Homo sapiens, Hepatocyte), 4.31 µM; in the assay with Huh7 cells (setting [1]), 1.45 µM.

In the case of `CC(C)OC(=O)/C=C/c1cc(C(N)=O)c(N)c(-c2ccc(S(N)(=O)=O)cc2)c1` [HPN-01116, isopropyl (E)-3-(6-amino-5-carbamoyl-4′-sulfamoyl-[1,1′-biphenyl]-3-yl)acrylate], the EC50 in the assay on SREBP-1 (Homo sapiens, Hepatocyte) was 3.74 µM; with SREBP-2 (Homo sapiens, Hepatocyte) it was 5.01 µM; in the assay with Huh7 cells (setting [1]), 1.01 µM.

As for `NC(=O)N1CCN(c2cc(-c3ccc(Cl)cc3)cc(-c3ccc(S(N)(=O)=O)cc3)c2N)CC1` [HPN-01623, 4-(4′-amino-4-chloro-4″-sulfamoyl-[1, 1′:3′,1″-terphenyl]-5′-yl)piperazine-1-carboxamide], the EC50 in the assay with SREBP-1 (Homo sapiens, Hepatocyte) turned out to be 38.1 µM; with SREBP-2 (Homo sapiens, Hepatocyte), 50.1 µM; with Huh7 cells (setting [1]), 15.3 µM.

As for `Nc1c(C(=O)Nc2ccc(F)c(F)c2)cc(-c2ccc(Br)cc2)cc1-c1ccc(S(N)(=O)=O)cc1` [HPN-01616, 4′-amino-4-bromo-N-(3,4-difluorophenyl)-4″-sulfamoyl-[1,1′:3′,1″-terphenyl]-5′-carboxamide], the EC50 with SREBP-1 (Homo sapiens, Hepatocyte) was 3.57 µM; in the assay with SREBP-2 (Homo sapiens, Hepatocyte) it was 6.79 µM; in the assay with Huh7 cells (setting [1]), 1.07 µM.

For `CCCNC(=O)c1cc(-c2ccc(Cl)cc2)cc(-c2ccc(S(N)(=O)=O)cc2)c1N` [HPN-01603, 4′-amino-4-chloro-N-propyl-4″-sulfamoyl-[1,1′:3′,1″-terphenyl]-5′-carboxamide], the EC50 in the assay on SREBP-1 (Homo sapiens, Hepatocyte) turned out to be 7.22 µM; with SREBP-2 (Homo sapiens, Hepatocyte) it was 9.4 µM; in the assay on Huh7 cells (setting [1]), 2.39 µM.

`CCCC(=O)OCC#Cc1cc(C(N)=O)c(N)c(-c2ccc(S(N)(=O)=O)cc2)c1` [HPN-01224, 3-(6-amino-5-carbamoyl-4′-sulfamoyl-[1,1′-biphenyl]-3-yl)prop-2-yn-1-yl butyrate]: the EC50 came out at 1.58 µM in the assay with SREBP-1 (Homo sapiens, Hepatocyte); 2.57 µM in the assay on SREBP-2 (Homo sapiens, Hepatocyte); 0.58 µM with Huh7 cells (setting [1]).

As to `NC(=O)c1cc(/C=C/c2cccc(Cl)c2)cc(-c2ccc(S(N)(=O)=O)cc2)c1N` [HPN-01102, (E)-2-amino-5-(3-chlorostyryl)-4′-sulfamoyl-[1,1′-biphenyl]-3-carboxamide], the EC50 in the assay on SREBP-1 (Homo sapiens, Hepatocyte) was 1.61 µM; with SREBP-2 (Homo sapiens, Hepatocyte) it was 3.37 µM; in the assay on Huh7 cells (setting [1]), 0.46 µM.

With `NC(=O)c1cc(-c2ccc(Cl)cc2)cc(-c2ccc(S(N)(=O)=O)cc2)c1NCCO` [HPN-01531, 4-chloro-4′-((2-hydroxyethyl)amino)-4″-sulfamoyl-[1,1′:3′,1″-terphenyl]-5′-carboxamide], the EC50 in the assay on SREBP-1 (Homo sapiens, Hepatocyte) turned out to be 3.15 µM; with SREBP-2 (Homo sapiens, Hepatocyte) it was 5.71 µM; in the assay on Huh7 cells (setting [1]) it was 6.48 µM.

With `NC(=O)c1cc(/C=C/C(=O)Nc2ccc(Cl)cc2)cc(-c2ccc(S(N)(=O)=O)cc2)c1N` [HPN-01130, (E)-2-amino-5-(3-((4-chlorophenyl)amino)-3-oxoprop-1-en-1-yl)-4′-sulfamoyl-[1,1′-biphenyl]-3-carboxamide], the EC50 in the assay on SREBP-1 (Homo sapiens, Hepatocyte) is 0.97 µM; in the assay with SREBP-2 (Homo sapiens, Hepatocyte), 1.8 µM; in the assay on Huh7 cells (setting [1]), 0.06 µM.

For `Nc1c(C(=O)Nc2ccc[nH]2)cc(-c2ccc(Cl)cc2)cc1-c1ccc(S(N)(=O)=O)cc1` [HPN-01626, 4′-amino-4-chloro-N-(1H-pyrrol-2-yl)-4″-sulfamoyl-[1,1′:3′,1″-terphenyl]-5′-carboxamide], the EC50 with SREBP-1 (Homo sapiens, Hepatocyte) came to 7.22 µM; in the assay on SREBP-2 (Homo sapiens, Hepatocyte), 12.5 µM; in the assay on Huh7 cells (setting [1]), 3.05 µM.

The EC50 is the concentration that produces a half-maximal response.
